Format in all cases: cell-based
For assay [1], the system named is HCT-116 colon cancer cells. The assay can be described thus: FACS (flow cytometric) analysis of endoreduplication (>4N DNA content) in HCT-116 colon cancer cells. On the procedure:
Asynchronous cells require 24 hour exposure to Aurora kinase inhibitors (such as 250 nM VX-680 or 1000 nM COMPOUND X. (Compound X is disclosed in WO 2008/057512, filed Nov. 6, 2007, Example 4-3 and Claim 70, Example 4-3 and Claim 70 and is shown below and it is represented in Formula H and Table 2, column 2, row 17 of the present application) or 25 nM COMPOUND Z (Compound Z is disclosed in PCT US2008/007295, filed Jun. 11, 2008, Example 76-2 and Claim 25, row 7, column 4 and it is represented in Table 13, compound 76-2 of the present application)) to induce endoreduplication (>4N DNA content) or cell death. For example, HCT-116 colon cancer cells were treated with 1000 nM COMPOUND X or 25 nM COMPOUND Z for the indicated times at which time the drug was washed off and replaced with new media see FIG. 1 and FIG. 8 respectively. Cells were analyzed by FACS after a total of 72 hours.
For example, HCT-116 colon cancer cells were treated with 1000 nM COMPOUND X or 25 nM COMPOUND Z for the indicated times at which time the drug was washed off and replaced with new media see FIG. 2 and FIG. 9 respectively. Cells were analyzed by FACS after a total of 24 hours.
For example, HCT-116 colon cancer cells were treated for 16 hours with DMSO (FIG. 3) or 5 nM taxotere and then exposed to DMSO or 1000 nM COMPOUND X or 25 nM COMPOUND Z for 4, 8, and 24 hours. After 4 or 8 hours, COMPOUND X or COMPOUND Z was washed off and new media was added to the cells. Cells were harvested after 24 hours and analyzed by FACS (see FIG. 4 and FIG. 11 respectively). Following DMSO pretreatment, DMSO had no effect on cell cycle distribution. […] Endoreduplication was observed even when COMPOUND X or COMPOUND Z exposure was as little as 4 hours.
However, following a 16 hour pre-treatment with nocodazole for incrusting, the time required for an Aurora inhibitor (such as 250 nM VX-680 or 1000 nM COMPOUND X or COMPOUND Z) to induce endoreduplication was […]. For example, HCT-116 colon cancer cells were treated for 16 hours with 0.4 μg/ml nocodazole see FIG. 5, and then exposed to DMSO or 1000 nM COMPOUND X or COMPOUND Z for 4, 8 or 24 hours. After 4 or 8 hours, COMPOUND X or COMPOUND Z was washed off and new media was added to the cells. Cells were harvested after 24 hours and analyzed by FACS.
For example, HCT-116 colon cancer cells that were not pretreated, were treated with 5 nM taxotere plus DMSO or 1000 nM COMPOUND X or COMPOUND Z concurrently for 4, 8, or 24 hours. At the indicated time the media was removed and replaced with new media and taxotere was added back into these cells. Cells were harvested after 24 hours and analyzed by FACS see FIG. 6 or FIG. 12 respectively.

For assay [2], the system named is HCT-116 colon cancer cells. The description is as above. The note with it: after 16 hours 10 nM Ispinesib pretreatment; 1000 nM Compound X / 25 nM Compound Z.
In assay [3] the test system is phos-MPM2 marker. The assay is described as follows: Exit from mitosis measured by phos-MPM2 marker after anti-mitotic induced arrest. The note with it: taxane and KSP induced arrest. On the procedure: (§1) Single agent Aurora kinase inhibitors require a drug exposure time of 24 hours to induce endoreduplication in asynchronous cells.
Assay [4] deals with phosphorylation of Histone H3 (at serine-10). The assay can be described thus: Inhibition of phosphorylation of Histone H3 (serine-10) stimulated by anti-mitotic agents. The note with it: stimulated by taxanes, KSP inhibitor, and nocodazole. On the procedure:
as §1

The structures appear in SMILES notation.

On to `CCN(Cc1cc(Nc2nc(C)cn3c(-c4cn[nH]c4)cnc23)sn1)C(C)(C)CO` [Compound Z], for which the endoreduplication entry in assay [1] (16 hours 5 nM taxotere pretreatment, then 1000 nM Compound X or 25 nM Compound Z for 4, 8 and 24 hours, FACS at 24 hours) is “induced endoreduplication”; in assay [1] (16 hours 10 nM Ispinesib (KSP inhibitor) pretreatment, then 1000 nM Compound X or 25 nM Compound Z for 4, 8 and 24 hours, FACS at 24 hours), “induced endoreduplication”; in assay [1] (16 hours DMSO pretreatment, then 1000 nM COMPOUND X or 25 nM COMPOUND Z for 4, 8 and 24 hours, FACS at 24 hours), “induced endoreduplication, but only when COMPOUND X or COMPOUND Z exposure was 24 hours”; in assay [1] (16 hours nocodazole (0.4 μg/ml) pretreatment, then 4- or 8-hour exposure to Aurora kinase inhibitor, FACS at 24 hours), “insufficient to induce endoreduplication”; in assay [1] (16 hours nocodazole (0.4 μg/ml) pretreatment, then 24 hour exposure to Aurora kinase inhibitor, FACS at 24 hours) it was “induced endoreduplication”; in assay [1] (Aurora kinase inhibitor given at the same time as 5 nM taxotere, 4 hour exposure, FACS at 24 hours), “not sufficient to induce endoreduplication”. The endoreduplication result in assay [1] (Aurora kinase inhibitor given at the same time as 5 nM taxotere, 4 hour exposure, FACS at 24 hours, listed as COMPOUND Z) was “not sufficient”; in assay [1] (Aurora kinase inhibitor given at the same time as Ispinesib (KSP inhibitor), 4 hour exposure), “not sufficient to induce endoreduplication”. Moreover, the “exposure needed to induce endoreduplication” value in assay [1] (Aurora kinase inhibitor given at the same time as 5 nM taxotere, no pretreatment) is 24 h; in assay [1] (Aurora kinase inhibitor given at the same time as Ispinesib (KSP inhibitor)) it was 24 h. The “Aurora kinase inhibitor exposure at which endoreduplication was still observed (as little as)” value is no more than 4 h in assay [1] (after 16 hours 5 nM taxotere pretreatment, 1000 nM Compound X / 25 nM Compound Z) and no more than 4 h in assay [2]. Moreover, the “exposure to Aurora kinase inhibitor required to induce endoreduplication (>4N DNA content) or cell death” value in assay [1] (asynchronous cells, single agent, 250 nM VX-680, 1000 nM COMPOUND X, 25 nM COMPOUND Z) amounted to 24 h. In addition, the “time required for Aurora inhibitor to induce endoreduplication, change after pre-treatment” value in assay [1] (following 16 hour pre-treatment with nocodazole, 250 nM VX-680, 1000 nM COMPOUND X or COMPOUND Z) was “not reduced”. Also, the “endoreduplication (>4N DNA content)” value is recorded as “sufficient to induce endoreduplication” in assay [1] (single agent, 24 hour exposure, FACS after a total of 24 hours, 250 nM VX-680 / 1000 nM Compound X / 25 nM Compound Z); “resulted in the accumulation of cells that underwent endoreduplication” in assay [1] (single agent, 24 hour exposure, FACS after a total of 24 hours, 250 nM VX-680 / 1000 nM Compound X / 25 nM Compound Z, listed as COMPOUND Z); “resulted in the accumulation of cells that underwent endoreduplication” in assay [1] (single agent, drug exposure for 24, 48, or 72 hours, FACS after a total of 72 hours, 1000 nM Compound X / 25 nM Compound Z); “insufficient to induce endoreduplication” in assay [1] (single agent, exposure less than 24 hours then drug washed off, FACS after a total of 72 hours, 1000 nM Compound X / 25 nM Compound Z); “insufficient to induce endoreduplication” in assay [1] (single agent, exposure less than 24 hours then washed off, FACS after a total of 24 hours, 250 nM VX-680 / 1000 nM Compound X / 25 nM Compound Z). In assay [3], the “exit from mitosis, as measured by phos-MPM2 marker” value is on record as “accelerated the exit from mitosis”. Besides, in assay [4], the “inhibition of phosphorylation of Histone H3 (at serine-10)” value is recorded as “capable of inhibiting phosphorylation of Histone H3”.

Source of the values: patent US20100249030A1, “ANTI-MITOTIC AGENT AND AURORA KINASE INHIBITOR COMBINATION AS ANTI-CANCER TREATMENT” (Schering Corporation, priority 2007, published 2010).
